34 compounds from PubChem BioAssay (NCI) can be followed below.

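Protocol summary: plate cells (96-well), add compound at 5 concentrations, incubate 48 h, interpolate endpoints linearly. GI50 marks 50% less growth. TGI: concentration producing complete growth inhibition.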

Holding throughout (experiment): growth of human tumour cells (NCI), 48 h
Test [1] deals with A549 NSCLC.
For test [2], the system named is DU-145 prostate.
Test [3] concerns PC-3 prostate.
Test [4] relates to SW-620 colon.
The test system of test [5] is RPMI-8226 leukemia.
In test [6] the test system is OVCAR-5 ovarian.
Test [7] relates to SK-MEL-2 melanoma.
For test [8], the system named is NCI-H522 lung.
Test [9] concerns MCF7 breast.
Test [10] deals with HOP-92 NSCLC.

Regarding `COC(=O)C1Cc2c([nH]c3ccccc23)-c2[nH]c3ccccc3c2CC(NC(C)=O)C(=O)N2CCCC2C(=O)N1` (stereo not given), the TGI in test [1], in test [2], in test [3], in [4], in [5] and in test [6] was more than 100 µM in each case. Besides, the TGI in test [7], in test [8] and in test [9] was more than 100 µM throughout.
With `Cc1csc2c(=O)n(COCc3ccccc3)c(=O)[nH]c12`, the TGI in test [1], in test [10], in test [2], in [3], in test [4] and in test [5] was more than 100 µM in each case. Besides, the TGI in test [6], in test [8] and in [9] was more than 100 µM each time.
Regarding `N#Cc1c(O)c(C=O)c(=O)n2c1[nH]c1ccccc12`, the TGI in test [1], in [10], in [2], in test [3], in test [4] and in [5] was more than 100 µM each time. Further, the TGI in test [6], in test [8] and in test [9] was more than 100 µM in each case.
For `CON(C(=O)OC(C)(C)C)c1ccccc1`, the TGI in test [1], in test [10], in test [2], in test [3], in test [4] and in test [5] was more than 100 µM each time. The TGI in test [6], in [7] and in [8] was more than 100 µM in each case.
Regarding `CCSc1[nH]c(NC(=NC(C)C)NC(=O)c2ccccc2)c(C(N)=O)c1C(N)=O`, the TGI in [1], in test [10], in test [2], in test [3], in [4] and in test [5] was more than 10 µM in each case. In [9], this compound displayed a TGI of more than 10 µM.
As to `COc1ccc(/C=C(\C2=NC(=O)CS2)c2nc3ccccc3[nH]2)cc1`, the TGI in test [1] is more than 100 µM; in test [10] it was more than 100 µM; in test [4] it was more than 100 µM; in test [5], more than 100 µM; in test [6] it was more than 100 µM; in test [7] it was 62.9 µM. In [8], this compound came in with a TGI of 49.7 µM.
Consider `Cc1ccc(S(=O)(=O)NCCCSCCO)cc1`, for which the TGI in [1], in [10], in test [2], in [3], in test [4] and in test [8] was more than 100 µM in each case. The compound also gave a TGI in test [9] of more than 100 µM.
`COc1ccc(OC)c(-c2cc(=O)c3cc4c(cc3[nH]2)OCO4)c1`: the TGI is more than 71.3 µM in test [1]; 41.3 µM in test [10]; more than 100 µM in [4]; more than 46.6 µM in test [5]; more than 100 µM in test [6]; more than 51.3 µM in test [7]. The TGI in [8] worked out at 9.26 µM.
Regarding `O=P(Nc1cccc(Cl)c1)(Oc1ccccc1)N(CCCl)CCCl` (stereo not given), the TGI in [1] is 29.2 µM; in test [10] it was 24.7 µM; in [4], 30.7 µM; in [6] it was 28.8 µM; in test [7] it was 25.6 µM; in test [8], more than 100 µM.
In the case of `C[C@]12CCC(=O)C=C1CC[C@@H]1C2CC[C@@]2(C)C1CC[C@@H]2OC(=O)C12OC1CCC2=O` (stereo not given in full), the TGI in test [1] stood at 54.6 µM; in test [10], 37.2 µM; in [4], 32.1 µM; in test [5], 52.1 µM; in [6] it was 33.9 µM; in [7] it was 29.8 µM. For the same compound, the TGI in test [8] worked out at 23.1 µM.
`Cc1ccc(O)cc1` (tested in a mixture with another compound): the TGI in test [1], in test [2], in test [3], in [4], in test [5] and in [6] was more than 100 µM each time. The TGI in [7], in [8] and in test [9] was more than 100 µM each time.
As to `CCOP(=O)(OCC)C(C)(CC)/N=C(\N)NC#N` (stereo not given), the TGI in test [1], in test [2], in [3], in test [4], in [5] and in [6] was more than 100 µM each time. The TGI in [7] and in test [9] was more than 100 µM throughout.
On to `COCC1N=C(c2cc(OC)c(OC)c(OC)c2-c2cc3c(cc2[C@@H](C)O)OCO3)O[C@H]1c1ccccc1` (stereo not given in full), for which the TGI in test [1] is more than 100 µM; in test [10], more than 84.5 µM; in test [4] it was more than 100 µM; in test [5], more than 100 µM; in test [6], more than 100 µM; in test [7] it was more than 87.7 µM. Moreover, the TGI in test [8] and in test [9] was more than 100 µM each time.
Take `COc1cc(O)c2c(=O)c(OC)c(-c3ccc(OC)c(OC)c3)oc2c1.[Sn]`: the TGI in test [1], in [2], in test [3], in [4], in [5] and in test [6] was more than 100 µM in each case. Also, the TGI in [8] and in test [9] was more than 100 µM in each case. The GI50 is more than 100 µM in test [2], 68.5 µM in test [3], more than 100 µM in [6] and more than 100 µM in [9].
For the compound `O=C1C(=Cc2ccc([N+](=O)[O-])o2)C(=O)N(CCc2ccccc2)S(=O)(=O)N1CCc1ccccc1`, the TGI in [1] was more than 100 µM; in test [10], 33.5 µM; in test [4] it was 33.9 µM; in test [5], more than 100 µM; in test [6], more than 100 µM; in test [7], 35.2 µM. Further, the TGI in test [8] came to 34.5 µM.
Regarding `O=C(CSc1nnc(-c2ccc(N=Cc3ccc(Cl)cc3)cc2)o1)Nc1cccc([N+](=O)[O-])c1`, the TGI in test [1], in [4], in [5], in [7] and in test [8] was more than 100 µM in each case.
On to `COC(=O)CC1NC(=O)C1C(C)(OC)OC` (stereo not given), for which the TGI in test [1], in [4], in test [5] and in test [7] was more than 100 µM in each case.
Consider `Cn1c(=O)oc2cc(C(=S)N3CCCCC3)ccc21`, for which the TGI in test [2], in test [3], in test [4], in test [5], in test [6] and in test [7] was more than 100 µM each time. For the same compound, the TGI in test [9] is more than 100 µM.
Consider `CNC(=O)c1cc(Oc2cccc3nc(NC(=O)Nc4ccc(F)cc4F)ccc23)ccn1`, for which the values for the GI50 in test [5], in [7] and in test [9] were 2.2 µM, more than 50 µM and 1.66 µM, respectively. For the same compound, the TGI in test [5], in test [7] and in [9] was more than 50 µM throughout.
`O=C1C(=O)N(C23CC4CC(CC(C4)C2)C3)C(=S)N1c1ccccc1`: the TGI in [1], in [10], in [2], in test [3], in test [4] and in test [5] was more than 100 µM each time. In addition, the TGI in test [6], in test [7] and in [8] was more than 100 µM in each case.
In the case of `Nc1ccn(CCCC(c2ccccc2)P(=O)(O)O)c(=O)n1` (stereo not given), the TGI in test [1], in test [10], in [4], in test [5], in test [6] and in test [7] was more than 100 µM each time. Besides, the TGI in test [8] is more than 100 µM.
For `Cc1cc(=O)[nH]c(NNC(C#N)c2ccc(N(C)C)cc2)n1` (stereo not given), the TGI in [1], in test [10], in test [4], in test [5], in test [6] and in test [7] was more than 100 µM in each case. In test [8], this compound returned a TGI of more than 100 µM.
Take `COc1cccc(/C=N/NC(=O)CN(C)C)c1O`: the TGI in test [1], in [10], in test [2], in test [3], in test [4] and in test [6] was more than 100 µM in each case. The TGI in test [8] and in test [9] was more than 100 µM in each case.
Regarding `COc1ccc(Oc2nc3c(N)cc(C(F)(F)F)cc3nc2-c2ccccc2)cc1`, the TGI in test [10] was more than 100 µM; in test [3] it was 59.6 µM; in test [4], more than 100 µM; in test [5], more than 100 µM; in [7], 25.9 µM; in [9], 23.8 µM.
For `CN(C)CCNC(=O)c1cccc2[nH]c(-c3ccc(Cl)cc3)nc12`, the TGI in test [1] was 17.7 µM; in [10], 17 µM; in [4], 18.3 µM; in test [5], 8.78 µM; in test [6], 26.4 µM; in [7] it was 26.5 µM. In addition, the TGI in test [8] is 19.9 µM; in test [9], 15.8 µM.
Regarding `CC(=O)N1CCN(CCCCN2c3ccccc3Sc3cc(N=[N+]=[N-])ccc32)CC1`, the TGI in test [1] came to 30 µM; in test [2], 32.1 µM; in test [3], 20 µM; in test [4] it was 29.3 µM; in [5] it was 29.1 µM; in test [6], 26.6 µM. For the same compound, the TGI in test [8] was found to be 26.3 µM; in test [9], 28.9 µM.
For the compound `O=C(c1cccnc1)N1N=C(c2ccc3c(c2)OCO3)CC1(O)c1cc(F)c(Cl)cc1Cl` (stereo not given), the TGI is more than 100 µM in test [1]; 68.9 µM in test [10]; 59.8 µM in [2]; more than 100 µM in test [3]; 84.5 µM in [4]; more than 100 µM in [5]. Moreover, the TGI turned out to be 49.4 µM in [6], 59.2 µM in test [7] and 33.8 µM in test [8].
As for `CC(=O)Nc1ccc(C(=O)n2[nH]c(C)c(/C=C3\C(=O)C=Cc4ccccc43)c2=O)cc1`, the TGI in test [1] is more than 100 µM; in test [4] it was more than 100 µM; in [5], more than 100 µM; in [6], more than 100 µM; in [7], 95.3 µM; in [8] it was more than 100 µM.
For `O=C1NC2OC(CO)C(O)C(O)C2O1` (stereo not given), the TGI in test [1], in [10], in [4], in test [6], in test [7] and in [8] was more than 100 µM throughout.
`C=C(C)[C@@H]1CCC2=C(CC[C@]3(C)[C@@H]([C@@H](CCC=C(C)C)C(=O)O)[C@H](O)C[C@@]23C)[C@@]1(C)CCC(=O)O`: the TGI in [1], in test [10], in test [2], in test [3], in test [4] and in [5] was more than 100 µM in each case. The TGI in test [6], in test [7] and in [8] was more than 100 µM in each case.
As to `COc1ccc(C2NC3=C(CCCC3)N2)cc1`, the TGI in [1], in test [10], in [5], in [6], in test [7] and in [8] was more than 100 µM each time.
Take `c1ccc(Sc2nc(Sc3ccccc3)nc(Sc3ccccc3)n2)cc1`: the TGI was more than 100 µM in test [1]; 47.1 µM in [2]; more than 100 µM in test [3]; more than 100 µM in [5]; more than 100 µM in [6]; more than 100 µM in test [7]. In addition, the TGI in [8] and in test [9] was more than 100 µM throughout.
For `Brc1ccc(C[N+]23CN4CN(CN(C4)C2)C3)cc1`, the TGI in test [1] is more than 100 µM; in test [4], 82.3 µM; in test [5], 59.5 µM; in [8] it was 32.1 µM.
In the case of `COc1cc(CC(=O)c2cc3c(cc2-c2ccccc2)OCO3)cc(OC)c1OC`, the TGI is more than 100 µM in [1]; 42 µM in test [10]; more than 100 µM in test [4]; more than 100 µM in test [6]; more than 100 µM in test [7]; more than 100 µM in [8].
